According to PubChem BioAssay (NCI):
Values joined by “and” are separate entries in the source; they are usually repeats but may differ in a detail not shown here. Equal entries are not always repeated.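 All cell lines were grown in 96-well plates and treated with compound for 48 hours. The concentration for 50% growth inhibition is given as GI50. TGI denotes the concentration required for complete inhibition of growth.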

Experiments:
Test in all cases: growth of human tumour cells (NCI), 48 h
[1] = tested on: A498 renal
[2] = tested on: BT-549 breast
[3] = tested on: HCC-2998 colon
[4] = tested on: HCT-15 colon
[5] = tested on: HS 578T breast
[6] = tested on: HT29 colon
[7] = tested on: M14 melanoma
[8] = tested on: MALME-3M melanoma
[9] = tested on: NCI-H226 lung
[10] = tested on: SK-MEL-5 melanoma

## CC1CC2CCCC(O)=C2C(=O)O1 (stereo not given)
[1]
  TGI: > 100 µM
[2]
  TGI: > 100 µM
[3]
  TGI: > 100 µM
[4]
  TGI: > 100 µM
[5]
  TGI: > 100 µM
[6]
  TGI: > 100 µM
[7]
  TGI: > 100 µM
[8]
  TGI: > 100 µM
[9]
  TGI: > 100 µM
[10]
  TGI: > 100 µM

## CCCC(=O)Nc1cn(COC)c(C(=O)N2C[C@@H]3C[C@]34C2=CC(=O)c2[nH]cc(C)c24)n1
[1]
  TGI: 18.2 µM
[2]
  TGI: 24.7 µM and 21.7 µM
[3]
  GI50: 6.23 µM
  TGI: 13.1 µM and 19.1 µM
[4]
  TGI: 50 µM and 38.9 µM
[5]
  GI50: 12.2 µM
  TGI: 44.6 µM and 41.2 µM
[6]
  GI50: 11.2 µM
  TGI: 21.1 µM and 37.7 µM
[7]
  GI50: 4.12 µM
  TGI: 50 µM and 16.2 µM
[8]
  TGI: 6.66 µM
[9]
  TGI: 34.1 µM
[10]
  GI50: 3.28 µM
  TGI: 12.8 µM and 11.8 µM

## CCOc1ccc(/C=C2\N=C(c3ccc([N+](=O)[O-])cc3)OC2=O)cc1
[1]
  TGI: > 100 µM
[2]
  TGI: > 100 µM
[3]
  TGI: > 100 µM
[4]
  TGI: > 100 µM
[5]
  TGI: > 100 µM
[6]
  TGI: > 100 µM
[7]
  TGI: > 100 µM
[8]
  TGI: > 100 µM
[9]
  TGI: > 100 µM
[10]
  TGI: > 100 µM

## CNCCOC(=O)/C=C1\CC[C@H]2[C@@H]([C@@H](O)C(=O)[C@@H]3[C@]2(C)CC[C@H](O)[C@]3(C)C(=O)OC)[C@H]1C
[1]
  GI50: 0.262 µM
  TGI: 2.53 µM
[2]
  GI50: 0.286 µM
  TGI: 1.09 µM
[3]
  GI50: 1.35 µM
  TGI: 3.63 µM
[4]
  GI50: 0.608 µM
  TGI: 2.55 µM
[5]
  GI50: 0.281 µM
  TGI: 2.06 µM
[6]
  GI50: 0.443 µM
  TGI: 1.58 µM
[7]
  GI50: 1.08 µM
  TGI: 2.46 µM
[8]
  GI50: 0.324 µM
  TGI: 1.42 µM
[9]
  GI50: 0.566 µM
  TGI: 1.99 µM
[10]
  GI50: 0.252 µM
  TGI: 0.734 µM

## NNC(=O)CNc1cccc(Br)c1
[1]
  TGI: > 100 µM
[2]
  TGI: > 100 µM
[3]
  TGI: > 100 µM
[4]
  TGI: > 100 µM
[5]
  TGI: > 100 µM
[6]
  TGI: > 100 µM
[7]
  TGI: > 100 µM
[8]
  TGI: > 100 µM
[9]
  TGI: > 100 µM
[10]
  TGI: > 100 µM

## N=c1c2c(-c3ccccc3)c(-c3ccccc3)n(Cc3ccccc3)c2ncn1C1CCC(O)CC1 (stereo not given)
[1]
  GI50: 0.345 µM
  TGI: 14.4 µM
[2]
  GI50: 2.55 µM
  TGI: 9.85 µM
[3]
  GI50: 1.06 µM
  TGI: 5.03 µM
[4]
  GI50: 0.27 µM
  TGI: 14.7 µM
[5]
  GI50: 1.57 µM
  TGI: 23.8 µM
[6]
  GI50: 0.0772 µM
  TGI: 2.49 µM
[7]
  GI50: 0.894 µM
  TGI: 2.38 µM
[8]
  GI50: 0.389 µM
  TGI: 1.68 µM
[9]
  GI50: 0.517 µM
  TGI: 16.8 µM
[10]
  GI50: 0.511 µM
  TGI: 1.85 µM

## S=c1[nH]c(=S)c2cc3ccccc3nc2[nH]1
[1]
  GI50: > 100 µM
  TGI: > 100 µM
[2]
  GI50: 35.4 µM
  TGI: > 100 µM
[3]
  GI50: 92.3 µM
  TGI: > 100 µM
[4]
  GI50: > 100 µM
  TGI: > 100 µM
[5]
  GI50: 71.3 µM
  TGI: > 100 µM
[6]
  GI50: > 100 µM
  TGI: > 100 µM
[7]
  GI50: > 100 µM
  TGI: > 100 µM
[8]
  GI50: 14.6 µM
  TGI: 45.1 µM
[9]
  GI50: > 100 µM
  TGI: > 100 µM
[10]
  GI50: 30 µM
  TGI: > 100 µM

## CCn1c(O)c(/C=N/NC(=O)C(C)c2ccc(CC(C)C)cc2)sc1=S (stereo not given)
[1]
  GI50: 0.243 µM
  TGI: 0.87 µM
[2]
  GI50: 0.98 µM
  TGI: 10.3 µM
[3]
  GI50: 0.839 µM
  TGI: 13.7 µM
[4]
  GI50: 0.379 µM
  TGI: > 35.4 µM
[5]
  GI50: 0.294 µM
  TGI: > 40.5 µM
[6]
  GI50: 2.42 µM
  TGI: > 37.8 µM
[7]
  GI50: 0.285 µM
  TGI: 14.5 µM
[8]
  GI50: 0.331 µM
  TGI: > 43 µM
[9]
  GI50: 0.797 µM
  TGI: > 21.4 µM
[10]
  GI50: 0.489 µM
  TGI: 3.26 µM

## COc1cc(Cl)cc(-c2nn(-c3cccc(NC(=O)c4ccc(N5CCOCC5)c(C(F)(F)F)c4)c3)cc2-c2ccncc2)c1
[1]
  GI50: 16.2 µM
  TGI: > 100 µM
[2]
  GI50: 89 µM
  TGI: > 100 µM
[3]
  GI50: 6.06 µM
  TGI: 74.7 µM
[4]
  GI50: 3.25 µM
  TGI: > 100 µM
[5]
  GI50: 6.48 µM
  TGI: > 100 µM
[6]
  GI50: 4.09 µM
  TGI: 38 µM
[7]
  GI50: 7.93 µM
  TGI: > 100 µM
[8]
  GI50: 28.3 µM
  TGI: > 100 µM
[9]
  GI50: 93.4 µM
  TGI: > 100 µM
[10]
  GI50: 16.5 µM
  TGI: > 100 µM

## CC(NCCC(c1ccccc1)c1ccccc1)c1ccccc1 (stereo not given)
[1]
  GI50: 1.45 µM
  TGI: 3.93 µM
[2]
  GI50: 5.42 µM
  TGI: 17.6 µM
[3]
  GI50: 1.6 µM
  TGI: 3.07 µM
[4]
  GI50: 2.57 µM
  TGI: 7.83 µM
[5]
  GI50: 4.04 µM
  TGI: 23.9 µM
[6]
  GI50: 1.72 µM
  TGI: 3.39 µM
[7]
  GI50: 1.73 µM
  TGI: 3.31 µM
[8]
  GI50: 1.75 µM
  TGI: 3.44 µM
[9]
  GI50: 2.78 µM
  TGI: 13.8 µM
[10]
  GI50: 1.6 µM
  TGI: 2.95 µM

## COc1cc(N(CCC#N)CCC#N)ccc1/C(N=Nc1ccc(Cl)cc1)=N/NC(=O)c1cc(Br)ccc1O
[1]
  GI50: > 150 µg/mL
  TGI: > 150 µg/mL
[2]
  GI50: 140 µg/mL
  TGI: > 150 µg/mL
[3]
  GI50: 33.8 µg/mL
  TGI: 81.8 µg/mL
[4]
  GI50: 32.7 µg/mL
  TGI: 66.4 µg/mL
[5]
  GI50: 125 µg/mL
  TGI: > 150 µg/mL
[6]
  GI50: 45.5 µg/mL
  TGI: > 150 µg/mL
[7]
  GI50: 58.5 µg/mL
  TGI: > 150 µg/mL
[8]
  GI50: > 150 µg/mL
  TGI: > 150 µg/mL
[9]
  GI50: 32.4 µg/mL
  TGI: 128 µg/mL
[10]
  GI50: 82 µg/mL
  TGI: > 150 µg/mL

## CC(=O)ON1CCCC(P(=O)(OCCSC(=O)C(C)(C)C)OCCSC(=O)C(C)(C)C)C1=O (stereo not given)
[1]
  GI50: 0.304 µM
  TGI: 3.49 µM
[2]
  GI50: 0.979 µM
  TGI: 7.24 µM
[3]
  GI50: 1.42 µM
  TGI: 12.4 µM
[4]
  GI50: 0.973 µM
  TGI: 76.1 µM
[5]
  GI50: 1.53 µM
  TGI: 8.94 µM
[6]
  GI50: 1.28 µM
  TGI: > 100 µM
[7]
  GI50: 2.11 µM
  TGI: 24.9 µM
[8]
  GI50: 0.537 µM
  TGI: 9.05 µM
[9]
  GI50: 2.27 µM
  TGI: 26.4 µM
[10]
  GI50: 1.21 µM
  TGI: 4.15 µM

## COC(=O)[C@]12CC[C@@H](C)[C@H](C)[C@@H]1C1=CC[C@@H]3[C@@]4(C)C[C@@H](O)[C@H](O)[C@@](C)(CO)C4=CC[C@@]3(C)[C@]1(C)CC2
[1]
  GI50: 19 µM
  TGI: 34 µM
[2]
  GI50: 16.2 µM
  TGI: 31.7 µM
[3]
  GI50: 17.3 µM
  TGI: 34.8 µM
[4]
  GI50: 15.1 µM
  TGI: 31 µM
[5]
  GI50: 17.9 µM
  TGI: 36.4 µM
[6]
  GI50: 15.9 µM
  TGI: 33.5 µM
[7]
  GI50: 17.5 µM
  TGI: 33.6 µM
[8]
  GI50: 17.5 µM
  TGI: 31.3 µM
[9]
  GI50: 20.1 µM
  TGI: 40.4 µM
[10]
  GI50: 12.8 µM
  TGI: 27.3 µM
